In patent publication US8063225B2, “Tricyclic compound derivatives useful in the treatment of neoplastic diseases, inflammatory disorders and immunomodulatory disorders” (Chembridge Corporation, priority 2006, dated 2011):

How the values were obtained:
InsR = target: T1, InsR (Homo sapiens, UniProt P06213); test: Tyrosine kinase assay (Kinase-Glo or AlphaScreen), InsR; conditions: biochemical tyrosine kinase assay
T1 construct: 6×His- or GST-tagged kinase domain fragments of the corresponding RTKs expressed in baculovirus system; host or cells: baculovirus system
T1 sequence (P06213 1023-1298 limits assumed, species assumed): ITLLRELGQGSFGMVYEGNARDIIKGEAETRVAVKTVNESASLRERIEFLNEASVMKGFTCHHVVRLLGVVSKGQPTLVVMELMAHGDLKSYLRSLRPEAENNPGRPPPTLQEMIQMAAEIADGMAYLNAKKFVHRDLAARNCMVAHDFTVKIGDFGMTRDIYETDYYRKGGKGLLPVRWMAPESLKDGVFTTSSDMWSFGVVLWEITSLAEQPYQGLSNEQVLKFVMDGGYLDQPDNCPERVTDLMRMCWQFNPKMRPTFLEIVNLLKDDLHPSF
Method in brief: (§1)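 Luminescence of remaining ATP (Kinase-Glo) or anti-phosphotyrosine AlphaScreen proximity signal served as read-out. Reactions held purified tagged kinase domain, poly(Glu-Tyr) substrate and 10 μM ATP at pH 7.5. IC50 values came from non-linear regression fits.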

K562 = test: Cell proliferation inhibition, Cell Titer-Glo, K562; assay type: cell-based; conditions: Homo sapiens; cell proliferation assay, K562 cells
Method in brief: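 K562 cells were seeded at 2500-5000 cells per well in white, clear-bottomed 384-well culture plates and treated with dilutions of test compounds for typically 3 days. Viable cells were quantified with the Cell Titer-Glo Luminescent Cell Viability Assay (Promega), which measures total ATP, read on a luminescence plate reader to derive IC50 values for proliferation inhibition.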

IGF1R tyrosine kinase = target: T2, IGF1R tyrosine kinase (Homo sapiens, UniProt P08069); test: IGF1R tyrosine kinase assay (Kinase-Glo ATP depletion or PT66/PT100 AlphaScreen); conditions: biochemical tyrosine kinase assay
T2 construct: 6×His- or GST-tagged kinase domain fragments of the corresponding RTKs expressed in baculovirus system; host or cells: baculovirus system
T2 sequence (P08069 999-1274 limits assumed): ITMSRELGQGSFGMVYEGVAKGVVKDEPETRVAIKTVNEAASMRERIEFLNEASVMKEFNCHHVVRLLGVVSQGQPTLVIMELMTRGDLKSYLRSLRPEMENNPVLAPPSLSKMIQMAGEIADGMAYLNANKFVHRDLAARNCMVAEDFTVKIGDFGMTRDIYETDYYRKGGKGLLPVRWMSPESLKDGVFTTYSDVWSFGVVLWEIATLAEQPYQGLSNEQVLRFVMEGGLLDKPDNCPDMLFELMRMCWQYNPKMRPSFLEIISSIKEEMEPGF
Method in brief: as §1

H929 (multiple myeloma) = test: Cell proliferation inhibition, Cell Titer-Glo, H929; assay type: cell-based; conditions: Homo sapiens, NCI-H929; cell proliferation assay, H929 cells
Method: IGF1R and other tyrosine kinase inhibitors can inhibit the proliferation of certain cancer cell lines indicating their possible therapeutic utility for treating the corresponding cancer types. Cancer cell lines of interest and control normal lines, including CHO, HEK293, BA/F3, MM1, H929, COLO205, PC3, DU145, MCF7, Panc1, ACHN, Hep G2, H460, K562, TT, U87-G, CAOV-3, SK-MEL5, Karpas 299, are plated in white, clear-bottomed 384-well cell culture plates at 2500-5000 cells per well and supplied with dilutions of tested compounds After a desired period of time (typically 3 days), the number of viable cells is quantitated by using Cell Titer-Glo Luminescent Cell Viability Assay (Promega), a cell proliferation assay system based on detection of total amount of ATP present as a measure of cell metabolic activity. The plated cells are mixed with the Cell Titer-Glo developing reagent and counted in a luminescence multiwell plate reader according to the standard manufacturer's protocol to generate IC50 curves for cell proliferation inhibition.
IGF1R and other tyrosine kinase inhibitors can inhibit the proliferation of certain cancer cell lines indicating their possible therapeutic utility for treating the corresponding cancer types. Cancer cell lines of interest and control normal lines, including CHO, HEK293, BA/F3, COLO205, PC3, DU145, MCF7, Panc1, ACHN, Hep G2, H460, K562, TT, U87-MG, CAOV-3, SK-MEL5, Karpas 299 and human multiple myeloma cell lines H929, MM1s, MM1r, UTMC2, CPM2, KMS11, My5, KMS12PE, My7, JJN3, KMS18, U266, SKMM2, RPMI-8226 are plated in white, clear-bottomed 384-well cell culture plates at 2500-5000 cells per well and supplied with dilutions of tested compounds After a desired period of time (typically 3 days), the number of viable cells is quantitated by using Cell Titer-Glo Luminescent Cell Viability Assay (Promega), a cell proliferation assay system based on detection of total amount of ATP present as a measure of cell metabolic activity. The plated cells are mixed with the Cell Titer-Glo developing reagent and counted in a luminescence multiwell plate reader according to the standard manufacturer's protocol to generate IC50 curves for cell proliferation inhibition. Results are typically reported as percent of growth (% viability =(OD72h(compound)−ODday0))/(OD72h(no compound)−ODday0). Alternatively, viable cells are quantitated by using the conventional colorimetric MTT assay. The MTT assay is based on the cleavage of the yellow tetrazolium salt MTT to purple formazan crystal by metabolic active cells. The formazan is then solubilized, and the concentration determined by optical density at 570 nm. The cells plated and incubated with a compound as described above are supplemented with the solution of MTT and incubated for 2-3 hours. The growth medium is removed and dimethyl sulfoxide is added into each well to dissolve the formazan. The absorbance is measured on an ELISA plate reader with a test wavelength of 570 nm and a background subtraction wavelength of 630 nm to obtain sample signal (OD570-OD630). […] The results are reported in terms of IC50 value for a particular compound and a cell line in the standard 3-day proliferation assay using Cell Titer-Glo. […] The results are reported in terms of IC50 value for a particular compound and a cell line in the standard 3-day proliferation assay using MTT assay.

Alk = target: T3, Alk (Homo sapiens, UniProt Q9UM73); test: Tyrosine kinase assay (Kinase-Glo or AlphaScreen), Alk; conditions: biochemical tyrosine kinase assay
T3 construct: 6×His- or GST-tagged kinase domain fragments of the corresponding RTKs expressed in baculovirus system; host or cells: baculovirus system
T3 sequence (Q9UM73 1116-1392 limits assumed, species assumed): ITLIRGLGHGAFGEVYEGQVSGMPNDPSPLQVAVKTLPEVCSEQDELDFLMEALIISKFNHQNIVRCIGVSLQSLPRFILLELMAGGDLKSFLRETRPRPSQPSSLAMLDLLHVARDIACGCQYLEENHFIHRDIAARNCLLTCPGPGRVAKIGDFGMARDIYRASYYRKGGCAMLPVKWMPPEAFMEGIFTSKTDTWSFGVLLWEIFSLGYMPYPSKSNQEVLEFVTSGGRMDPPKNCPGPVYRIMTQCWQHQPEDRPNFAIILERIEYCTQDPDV
Method in brief: as §1

Jak2 = target: T4, Jak2 (Homo sapiens, UniProt O60674); test: Tyrosine kinase assay (Kinase-Glo or AlphaScreen), Jak2; conditions: biochemical tyrosine kinase assay
T4 construct: 6×His- or GST-tagged kinase domain fragments of the corresponding RTKs expressed in baculovirus system; host or cells: baculovirus system
T4 sequence (O60674 849-1124 limits assumed, species assumed): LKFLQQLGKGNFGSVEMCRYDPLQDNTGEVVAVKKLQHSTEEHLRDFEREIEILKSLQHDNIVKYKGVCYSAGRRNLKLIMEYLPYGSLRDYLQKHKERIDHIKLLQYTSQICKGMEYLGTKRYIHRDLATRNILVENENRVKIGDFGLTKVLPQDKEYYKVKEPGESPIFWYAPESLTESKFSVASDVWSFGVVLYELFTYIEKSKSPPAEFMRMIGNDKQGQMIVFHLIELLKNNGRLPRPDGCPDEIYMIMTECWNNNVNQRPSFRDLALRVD
Method in brief: as §1

Karpas-299 = test: Cell proliferation inhibition, Cell Titer-Glo, Karpas-299; assay type: cell-based; conditions: Homo sapiens; cell proliferation assay, Karpas-299 cells
Method in brief: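 Karpas 299 cells were seeded into white, clear-bottomed 384-well culture plates at 2500-5000 cells per well and exposed to serial dilutions of test compounds for about 3 days. Viable cell numbers were then measured with the Cell Titer-Glo Luminescent Cell Viability Assay (Promega), which detects total ATP, and IC50 values for proliferation inhibition were derived.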

Ba/F3 = test: Cell proliferation inhibition, Cell Titer-Glo, Ba/F3; assay type: cell-based; conditions: Mus musculus, BaF3; cell proliferation assay, Ba/F3 cells
Method in brief: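 Ba/F3 cells were seeded at 2500-5000 cells per well in white, clear-bottomed 384-well culture plates and exposed to serial dilutions of test compounds for 3 days. Cell Titer-Glo Luminescent Cell Viability Assay (Promega) reagent, which measures total ATP as an indicator of metabolic activity, was added. Luminescence was read on a multiwell plate reader to derive IC50 values for inhibition of proliferation.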

Row | IC50 (InsR) | IC50 (K562) | IC50 (IGF1R tyrosine kinase) | IC50 (H929 (multiple myeloma)) | IC50 (Alk) | IC50 (Jak2) | IC50 (Karpas-299) | IC50 (Ba/F3) | Structure (SMILES)
1 | < 0.5 µM | > 15 µM | < 0.5 µM | > 15 µM | 0.5 to 5 µM | 0.5 to 5 µM | > 15 µM | > 15 µM | Cc1ccc(OC[C@H](O)CNc2cc[nH]c(=O)c2-c2nc3cc4c(cc3[nH]2)C(=O)N(CCCN2CCCC2)C4=O)c2c1CCC2 [compound 114]
2 | 0.5 to 5 µM | 5 to 15 µM | 0.5 to 5 µM | 5 to 15 µM | 5 to 15 µM | 5 to 15 µM | 0.5 to 5 µM | 0.5 to 5 µM | COc1ccccc1OCC(O)CNc1cc[nH]c(=O)c1-c1nc2cc3c(cc2[nH]1)C(=O)N(C1CCN(C)CC1)C3=O (stereo not shown) [compound 41]
3 | 0.5 to 5 µM | > 15 µM | < 0.5 µM | > 15 µM | 0.5 to 5 µM | 0.5 to 5 µM | > 15 µM | > 15 µM | Cc1ccc(OC[C@H](O)CNc2cc[nH]c(=O)c2-c2nc3cc4c(cc3[nH]2)C(=O)N(C2CCN(CCO)CC2)C4=O)c(C)c1 [compound 123]
4 | < 0.5 µM | > 15 µM | < 0.5 µM | > 15 µM | 0.5 to 5 µM | 0.5 to 5 µM | 5 to 15 µM | > 15 µM | Cc1ccc(OC[C@H](O)CNc2cc[nH]c(=O)c2-c2nc3cc4c(cc3[nH]2)C(=O)N(CC2CCN(CCO)CC2)C4=O)c(C)c1 [compound 118]
5 | < 0.5 µM | 5 to 15 µM | < 0.5 µM | 5 to 15 µM | 0.5 to 5 µM | 0.5 to 5 µM | 5 to 15 µM | 5 to 15 µM | Cc1ccc(OC[C@H](O)CNc2cc[nH]c(=O)c2-c2nc3cc4c(cc3[nH]2)C(=O)N(C2CCN(CCCO)CC2)C4=O)c(C)c1 [compound 129]

The remaining lines, values behind:

Row | Structure (SMILES) | IC50 (InsR) | IC50 (K562) | IC50 (IGF1R tyrosine kinase) | IC50 (H929 (multiple myeloma)) | IC50 (Alk) | IC50 (Jak2) | IC50 (Karpas-299) | IC50 (Ba/F3)
6 | COCCN1C(=O)c2cc3nc(-c4c(NC[C@@H](O)c5cccc(Cl)c5)cc[nH]c4=O)[nH]c3cc2C1=O [compound 36] | > 15 µM | > 15 µM | > 15 µM | 0.5 to 5 µM | > 15 µM | > 15 µM | > 15 µM | > 15 µM
7 | COc1cc(C#N)ccc1OC[C@H](O)CNc1ccnc(O)c1-c1nc2cc3c(cc2[nH]1)C(=O)N(C1CCN(C)CC1)C3=O [compound 90] | 5 to 15 µM | 0.5 to 5 µM | 5 to 15 µM | 5 to 15 µM | > 15 µM | 0.5 to 5 µM | 0.5 to 5 µM | 5 to 15 µM
8 | Cc1ccc(OC[C@H](O)CNc2cc[nH]c(=O)c2-c2nc3c(C)c4c(cc3[nH]2)C(=O)N(C2CCN(C)CC2)C4=O)c(C)c1Cl [compound 137] | < 0.5 µM | > 15 µM | 0.5 to 5 µM | > 15 µM | 5 to 15 µM | 0.5 to 5 µM | > 15 µM | > 15 µM
9 | COC[C@@H](C)N1C(=O)c2cc3nc(-c4c(NC[C@@H](O)c5cccc(Cl)c5)cc[nH]c4=O)[nH]c3cc2C1=O [compound 30] | > 15 µM | > 15 µM | > 15 µM | > 15 µM | > 15 µM | > 15 µM | > 15 µM | > 15 µM
10 | CN1CCC(N2C(=O)c3cc4nc(-c5c(NCCc6c[nH]cn6)cc[nH]c5=O)[nH]c4cc3C2=O)CC1 [compound 4] | 0.5 to 5 µM | 5 to 15 µM | 0.5 to 5 µM | 5 to 15 µM | 0.5 to 5 µM | 0.5 to 5 µM | 0.5 to 5 µM | 5 to 15 µM
11 | CN1CCC(N2C(=O)c3cc4nc(-c5c(N[C@@H](CO)Cc6c[nH]cn6)cc[nH]c5=O)[nH]c4cc3C2=O)CC1 [compound 3] | 0.5 to 5 µM | 5 to 15 µM | 0.5 to 5 µM | 5 to 15 µM | 5 to 15 µM | > 15 µM | 5 to 15 µM | > 15 µM
12 | O=C1c2cc3nc(-c4c(NC[C@@H](O)c5cccc(Cl)c5)cc[nH]c4=O)[nH]c3cc2C(=O)N1CCCN1CCCC1 [compound 35] | < 0.5 µM | > 15 µM | < 0.5 µM | 5 to 15 µM | 0.5 to 5 µM | 0.5 to 5 µM | > 15 µM | > 15 µM
13 | CN1CCC(N2C(=O)c3cc4nc(-c5c(NC[C@@H](O)COc6ccc7c8c6CCCN8CCC7)cc[nH]c5=O)[nH]c4cc3C2=O)CC1 [compound 86] | 5 to 15 µM | 5 to 15 µM | 0.5 to 5 µM | > 15 µM | 0.5 to 5 µM | 0.5 to 5 µM | 5 to 15 µM | > 15 µM
14 | Cc1c(Cl)cccc1OC[C@H](O)CNc1cc[nH]c(=O)c1-c1nc2cc3c(cc2[nH]1)C(=O)N(CC(C)(C)CN(C)C)C3=O [compound 117] | < 0.5 µM | > 15 µM | < 0.5 µM | > 15 µM | 5 to 15 µM | 0.5 to 5 µM | 5 to 15 µM | > 15 µM
